From patent US20170367390A1, “USE OF ELLAGIC ACID DIHYDRATE IN FOOD PRODUCTS AND NUTRACEUTICALS” (HALO LIFE SCIENCE, LLC, priority 2014, published 2017)
Entries after “also recorded” stand apart in the source; their conditions may differ.

Key:
MEF cells [1] = experiment: Glucose uptake, 2-NBDG labeling, high-content imaging (Operetta), MEFs; assay type: cell-based, mouse
Method: (§1) Increased glucose uptake was indicated as increasing signal of 2-NBDG ([…]) in cells. Glucose uptake assays were carried out in a final incubation volume of 50 μl consisting of, 2-NBDG), (100 μM) in 1× Phosphate Buffered Saline w/Ca+, Mg+ (PBS++). The same buffer was used for washing cells. Insulin was used as a positive control. All testing compounds were prepared in 10% DMSO and diluted 1:100 for a final concentration of 0.1% DMSO (vehicle). Cells were culture to 70-90% confluence and then washed twice with PBS++. Cells were incubated for 30 minutes at 37° C. in PBS++. Nuclear stain, HCS CellMask stain (blue, Invitrogen), and/or testing compounds (ellagic acid dihydrate, insulin, or vehicle) were added. Cells were incubated for 30 min at 37° C. Cells were washed twice with PBS++ and incubated with 2-NBDG for 10 minutes. Cells were washed thrice with PBS++ and then imaged in PBS++. Alternatively, the final PBS wash was removed and cells were incubated with Accutase (Invitrogen) for 10 min at 37° C., neutralized with 10% FBS in 1×PBS, and analyzed by flow cytometry. An additional experiment was performed to measure glucose uptake in C2Cl2 cells exposed to metformin, insulin and ellagic acid dihydrate 2 (batch 2). FIG. 5C. Glucose uptake in ellagic acid dihydrate treated cell culture was measured and compared to glucose uptake under insulin or ellagic acid treatment. […] Flow cytometry results were run in triplicate with 1000 cells per batch.

[2] = Weight loss and blood glucose in female SWV mice with STZ induced diabetes, 30 days gavage; assay type: in vivo, mouse; settings: thirty days
Method: Weight loss and blood glucose in diabetes induced mice treated with ellagic acid was determined and weight loss and blood glucose in mice treated with ellagic acid dihydrate may be determined by the following procedures. Induction of Diabetes: Diabetes is induced in mice by intraperitoneal injection with Streptozotocin (STZ 40 mg/kg) daily for five days. The mice are considered hyperglycemic when the glucose level of each dam is above 200 mg/dL. The mice are fasted for 4 hours before STZ injection and glucose measurement. Treatment: The mice are treated daily for thirty days with ellagic acid or control in the form of a supplemental pill homogenized and suspended in 25% water solution of Cremophor EL. The mice are treated for one month via gavage using the human equivalent dose of 122.4 mg pill/kg of subject (40.6 mg ellagic acid/kg of the subject), the human equivalent does of 40.6 mg ellagic acid/kg of the subject using 98% pure ellagic acid, or control vehicle (25% water solution of Cremophor EL). The human equivalent dose is calculated as described in Example 8. Treatments would start two weeks after the last STZ injection in which hyperglycemia is confirmed in the diabetic mice. The mice would be weighed daily and glucose levels would be measured in fasted animals every five days.

Activity level in mice = assay type: in vivo, mouse; settings: mice, Applicant's observation
Text: Activity levels in mice treated with ellagic acid dihydrate may be quantified by several procedures, such as those outlined in Turri, M. et al.; QTL Analysis Identifies Multiple Behavioral Dimensions in Ethological Tests of Anxiety in Laboratory Mice; Current Biology; 2001; 11(10): 725-734. Two examples of procedures taught therein follows. Gross Locomotor Activity in Home Cage: Mice are caged singly several days prior to home cage activity monitoring and subsequent testing. Activity in home cages are measured during the first 2 hours of the dark cycle on two consecutive days. Two infrared photo emitter-detector pairs, located outside the clear plastic home cage that divide the cage into three equal areas, are used to record gross locomotor activity on the floor of the home cage as the animal breaks the photo beams. The beam-break activity score consists of the square root of the number of beam breaks for each detector summed across the two test days. Magnitude of Activity in Home Cage: Mice are caged singly several days prior to home cage activity monitoring and subsequent testing. Activity in home cages are measured during the first 2 hours of the dark cycle on two consecutive days. An infrared motion detector located above the top of the home cage is employed to converts all motion sensed within the home cage into arbitrary units, based on the magnitude of activity detected.

AKT = experiment: AKT:Phos AKT ratio by immunocytochemistry, high-content imaging in C2C12; assay type: cell-based, mouse; settings: serum starved C2C12, 30 minutes; 4 nM-4 μM for insulin and ellagic acid dihydrate
Method: Stimulation of AKT pathways and MAPK pathways in ellagic acid dihydrate, metformin, and insulin treated cell cultures was performed. Insulin stimulates glucose uptake into cells by increasing GLUT4 activation, and AKT, specifically phos-AKT, signaling alters GLUT4 translocation. […] Cellular assays were performed using mouse myoblast C2C12 cells. […] Serum starved cells (1 hr) were treated for 30 minutes with each of the tested compounds.

p44/42 MAPK = experiment: p44/42 MAPK:Phos p44/42 MAPK ratio by immunocytochemistry, high-content imaging in C2C12; assay type: cell-based, mouse; settings: serum starved C2C12, 30 minutes, 0.04 nM
Method: Stimulation of AKT pathways and MAPK pathways in ellagic acid dihydrate, metformin, and insulin treated cell cultures was performed. Insulin stimulates glucose uptake into cells by increasing GLUT4 activation, and AKT, specifically phos-AKT, signaling alters GLUT4 translocation. […] Cellular assays were performed using mouse myoblast C2C12 cells. Relative protein levels of AKT:phos AKT and p44/42 MAPK:phos p44/42 MAPK were determined.
Serum starved cells (1 hr) were treated for 30 minutes with each of the tested compounds. Ratios of phosphorylated to non-phosphorylated proteins were determined using immunocytochemistry labeling (anti-AKT, anti-Phos AKT; or anti-p44/42 MAPK, anti-Phos p44/42 MAPK) on a high-content imaging system (Operetta, Perkin Elmer) using the fluorescent signal of anti-rabbit Alexa 647. Increased phosphorylation is indicated as decrease in signal of AKT:Phos AKT ratio (log 2 scale) and p44/42 MAPK:Phos p44/42 MAPK ratio (log 2 scale) relative to vehicle treated cells.

MEF cells [3] = experiment: Glucose uptake, 2-NBDG labeling, flow cytometry, MEFs; assay type: cell-based, mouse; settings: flow cytometry
Method: as §1, with “Cellular assays were performed using mouse myoblast C2C12 cells and MEF cells. […] Increased” for “Increased”

[4] = system: mouse myoblast C2C12 cells; experiment: Glucose uptake, 2-NBDG labeling, flow cytometry, C2C12; assay type: cell-based
Method: Cellular assays were performed using mouse myoblast C2C12 cells and MEF cells. […] Increased glucose uptake was indicated as increasing signal of 2-NBDG ([…]) in cells. Glucose uptake assays were carried out in a final incubation volume of 50 μl consisting of, 2-NBDG), (100 μM) in 1× Phosphate Buffered Saline w/Ca+, Mg+ (PBS++). The same buffer was used for washing cells. Insulin was used as a positive control. All testing compounds were prepared in 10% DMSO and diluted 1:100 for a final concentration of 0.1% DMSO (vehicle). Cells were culture to 70-90% confluence and then washed twice with PBS++. Cells were incubated for 30 minutes at 37° C. in PBS++. Nuclear stain, HCS CellMask stain (blue, Invitrogen), and/or testing compounds (ellagic acid dihydrate, insulin, or vehicle) were added. Cells were incubated for 30 min at 37° C. Cells were washed twice with PBS++ and incubated with 2-NBDG for 10 minutes. Cells were washed thrice with PBS++ and then imaged in PBS++. Alternatively, the final PBS wash was removed and cells were incubated with Accutase (Invitrogen) for 10 min at 37° C., neutralized with 10% FBS in 1×PBS, and analyzed by flow cytometry. An additional experiment was performed to measure glucose uptake in C2Cl2 cells exposed to metformin, insulin and ellagic acid dihydrate 2 (batch 2). FIG. 5C.

GLUT4-GFP = experiment: Localization of glucose transporter GLUT4-GFP, time-lapse confocal microscopy in C2C12; assay type: cell-based, mouse; settings: C2C12, 4000 nM exposure
Method: Induction of glucose transporter, GLUT-4, in ellagic acid dihydrate treated cell cultures was studied. Cellular assays were performed using mouse myoblast C2C12 cells. The cells were infected with a fusion glucose transporter 4 green fluorescent protein (GLUT4-GFP). This protein allows the visualization of GLUT4 by imaging the GFP under fluorescent time-lapse microscopy. Frames were compiled to produce time-lapse images of cellular changes with no treatment or treatment with insulin. The localization of glucose transporter (GLUT4-GFP) was performed in final incubation volume of 505 μL, consisting of 500 μl of Hank's Buffer (Invitrogen) and 5 μl of tested compounds. Insulin was used as positive controls and vehicle (0.1% DMSO) as the negative control. All test compounds were prepared in 10% DMSO and diluted 1:100 for a final concentration of 0.1% DMSO (vehicle). The cells were rinsed in Hank's Buffer thrice and then incubated in Hank's Buffer at 37° C. for one hour. The test compounds were added (ellagic acid dihydrate, insulin, or vehicle) and the cells were imaged using laser-confocal microscopy (Leica TCS SP5 X) with FITC fluorescent filters to determine changes in GLUT4-GFP localization. Time-lapse images (TIF) were collected and post-processed using Image-J (NIH) for video construction.

For `O=c1oc2c(O)c(O)cc3c(=O)oc4c(O)c(O)cc1c4c23` [ellagic acid], the “dose effect for increasing glucose uptake” value (MEF cells [1]) was “little to no glucose uptake per unit dose; also recorded: no such dose effect was seen”, the “mean glucose level values, treated versus control mice” value ([2]; STZ diabetic mice) was “no significant differences between the mean glucose level values” and the “average loss of body weight” value ([2]; female SWV mice with STZ induced diabetes, human equivalent dose (40.6 mg ellagic acid/kg), gavage daily, control lost 2.2%) was 11.7%. The activity levels (Activity level in mice) was “increased activity levels”.
In the case of `CN(C)C(=N)N=C(N)N` [metformin], the “AKT:Phos AKT ratio (log 2 scale) relative to vehicle treated cells” value (AKT) is reported as “increase in AKT relative to phosphorylation of AKT” and the “p44/42 MAPK:Phos p44/42 MAPK ratio relative to vehicle” value (p44/42 MAPK) is reported as “increased the ratio of p44/42 MAPK”.
For insulin [reference compound], the “increased glucose uptake (percent change relative to vehicle)” value (MEF cells [3]; 400 nM exposure, fibroblasts (MEFs)) was 32%, the “dose effect for increasing glucose uptake” value (MEF cells [3]; MEFs, 2-NBDG) was “dose effect for increasing glucose uptake” and the “glucose uptake (2-NBDG signal) relative to vehicle” value (MEF cells [3]; MEFs, vehicle 0.1% DMSO) was “significant increase in glucose uptake relative to the vehicle”. The “dose effect for increasing glucose uptake” value ([4]; C2C12, flow cytometry, 2-NBDG) was “dose effect for increasing glucose uptake”, the “glucose uptake (2-NBDG signal) relative to vehicle” value ([4]; C2C12, flow cytometry, vehicle 0.1% DMSO) was “significant increase in glucose uptake relative to the vehicle” and the “increase in glucose uptake in myoblasts relative to fibroblasts” value ([4]; C2C12 myoblasts versus MEF fibroblasts) was roughly 4 ×. For the same compound, the “dose effect for increasing glucose uptake” value (MEF cells [1]) was “dose effect for increasing glucose uptake”, the “glucose uptake (2-NBDG signal)” value (MEF cells [1]; versus vehicle (Neg, 0.1% DMSO)) was “showed an increase in glucose uptake” and the GLUT4-GFP localization (GLUT4-GFP) was “decrease in GLUT4-GFP around the cell nucleus and a parallel increase of movement at the membrane”. The “ruffling of filopodia at the surface of the cell” value (GLUT4-GFP) was “rapid production of numerous projections (ruffling of filopodia) at the surface of the cell”, the “AKT:Phos AKT ratio (log 2 scale) relative to vehicle treated cells” value (AKT) was −0.5 and the “p44/42 MAPK:Phos p44/42 MAPK ratio relative to vehicle” value (p44/42 MAPK; 400 nM) was “increase in p44/42 MAPK”.
